In PubChem BioAssay AID449750 (Broad Institute, 2010):
Activity calls are given as the source filed them. No rule for the calls is given here.

experiment: non-covalent RecA intein splicing inhibitors, dose response, biochemical, cell-free, fluorescence, secondary screen (AID 449750)

| Compound | AC50 |
| --- | --- |
| COc1ccc(N2C(=O)C(Cl)=C(N3CCN(Cc4ccccc4)CC3)C2=O)cc1 | > 38 µM (inactive) |
| O=S(=O)(N[C@H]1C[C@@H](NS(=O)(=O)OCC(Cl)(Cl)Cl)C2CCCCC21)OCC(Cl)(Cl)Cl (stereo partly specified) | 3.37 µM |
| Cc1nc([N+](=O)[O-])c(Sc2nc3ccccc3[nH]2)n1Cc1ccccc1 | > 38 µM (inactive) |
| COC(=O)CC1(c2cccc3ccccc23)C(=O)c2ccccc2C1=O | 19.1 µM |
| O=C(OCn1ncc(Cl)c(Cl)c1=O)c1cccc(C(F)(F)F)c1 | 12.9 µM |
| Cc1cccc(CS(=O)(=O)c2ncc(Cl)c(C(=O)Nc3nnc(C(C)C)s3)n2)c1 | 2.13 µM |
| O=C(O)CSc1c2c(nc3cc(C(=O)Nc4cccc(C(F)(F)F)c4)ccc13)CCCC2 | 21.7 µM |
| O=C(Cc1ccccc1Cl)NC1(O)C(=O)c2ccccc2C1=O | 7.63 µM |
| CC(C)c1ccc(/C=N/NC(=O)c2nnn(-c3nonc3N)c2CSC2=NCCS2)cc1 | 27.6 µM |
| CCCCn1c(NC(=O)c2ccco2)c(S(=O)(=O)c2ccc(C)cc2)c2nc3ccccc3nc21 | > 38 µM (inactive) |
| C=CCc1cccc(C=Nc2c[nH]c(=O)[nH]c2=O)c1O | > 38 µM (inactive) |
| COc1ccccc1-c1cc(C(F)(F)F)nc(S(=O)(=O)CCCC(=O)NCc2ccc(F)cc2)n1 | 6.03 µM |
| COc1ccc(N2C(=O)CC(N(CCc3ccccc3)C(=O)/C=C/C(=O)O)C2=O)cc1 (stereo unspecified) | > 38 µM (inactive) |
| CCc1ccc(N2C(=O)C(Cl)=C(N3CCOCC3)C2=O)cc1 | > 38 µM (inactive) |
| Cc1cc(C)cc(OC(=O)CS(=O)c2ccc(C(F)(F)F)cc2[N+](=O)[O-])c1 (stereo unspecified) | > 38 µM (inactive) |
| Nc1ccc(N2CCCCC2)c2nonc12 | 15.9 µM |
| CSc1nc(-c2ccccc2)nn1C(=O)c1ccc(Cl)cc1 | > 38 µM (inactive) |
| Cc1cc(C)cc(S(=O)(=O)c2cnc3ccccc3n2)c1 | > 38 µM (inactive) |
| O=C(c1ccc(Cl)cc1)c1c[nH]c(C(=O)C(Cl)(Cl)Cl)c1 | 16.6 µM |
| O=[N+]([O-])c1ccc(O)c2ncccc12 | 6.6 µM |
| CCc1nnc(NS(=O)(=O)c2ccc(NC(=S)NC(=O)/C=C/c3ccc(C(C)C)cc3)cc2)s1 | 5.98 µM |
| CCOC(=O)C(CC)Sc1ncnc2c1nnn2-c1ccc(F)cc1 (stereo unspecified) | > 38 µM (inactive) |

| Compound | AC50 |
| --- | --- |
| COc1ccc2[nH]c(CN3CCC(CO)(CCOc4ccccc4)CC3)c(C)c2c1 | > 38 µM (inactive) |
| Cc1ccsc1/C=N/NC(=O)Cc1cc(=O)[nH][nH]1 | 5.95 µM |
| CNc1ccc2nc3ccccc3[n+](C)c2c1 | 11.3 µM |
| Cc1ccc(S(=O)(=O)/N=C2/C=C(C3C(=O)CC(C)(C)CC3=O)C(=O)c3ccccc32)cc1 | > 38 µM (inactive) |
| COc1ccc(CC(=O)O/N=C(\N)Cc2cccc3ccccc23)cc1OC | > 38 µM (inactive) |
| CCNC1=C(Cl)C(=O)c2ccccc2C1=O | 22.3 µM |
| O=C1C(Cl)=C(NCCN2CCCCC2)C(=O)c2ccccc21 | 13.3 µM |
| Cc1ccc(SCc2[nH]nc3c2C2(CCSCC2)C(C#N)=C(N)O3)cc1 | 30.4 µM |
| COc1ccc(N(C(=O)CCl)C(C(=O)NCCc2ccccc2)c2cccs2)cc1Cl (stereo unspecified) | 0.672 µM |
| Cn1c(=O)c([N+](=O)[O-])c(-n2ccnc2)c2ccccc21 | > 38 µM (inactive) |
| Cc1[nH]n(-c2ccccc2)c(=O)c1/C=C1/C=c2ccccc2=N1 | > 38 µM (inactive) |
| Cn1nc(-c2ccccn2)nc2c(=O)n(C)c(=O)nc1-2 | 0.176 µM |
| Nc1ccc(N(CCO)CCO)cc1 | > 38 µM (inactive) |
| O=c1[nH]c(/C=C/c2cccnc2)c([N+](=O)[O-])c(=O)[nH]1 | > 38 µM (inactive) |
| COc1ccc(N2C(=O)C(Cl)=C(N3CCOCC3)C2=O)cc1 | > 38 µM (inactive) |
| O=C(COC(=O)C1CC(=O)N(Cc2ccco2)C1)c1ccc(OC(=O)c2ccco2)cc1 (stereo unspecified) | > 38 µM (inactive) |
| CC1OC(Nc2cccc3ccccc23)C(O)C(O)C1O (stereo unspecified) | > 38 µM (inactive) |
| CCCCC[C@H](O)/C=C/[C@@H]1[C@@H](C/C=C\CCCC(=O)OC)[C@@H](O)C[C@H]1O | 36.5 µM |
| CCN(CC)c1ccc2oc(=O)c(C)nc2c1 | 37.2 µM |
| Cn1cnc([N+](=O)[O-])c1Oc1ccc2ccccc2c1 | > 38 µM (inactive) |
| O=C(CSc1nnc(Cc2ccccc2)o1)Nc1cccc(F)c1 | > 38 µM (inactive) |
| [O-][n+]1c2c(nc3c1-c1ccccc1C3O)CCCC2 (stereo unspecified) | 31.2 µM |

| Compound | AC50 |
| --- | --- |
| CC(=O)N(C)C1=C(N2CCOCC2)C(=O)c2ccccc2C1=O | 15.7 µM |
| O=c1c(Cl)c(Cl)cnn1Cc1ccccc1Cl | 36.8 µM |
| Cc1[nH]nc2c1C1(CCC(c3ccccc3)CC1)C(C#N)=C(N)O2 (stereo unspecified) | > 38 µM (inactive) |
| Cc1ccccc1N1C(=O)c2ccccc2C1Nc1cccnc1 (stereo unspecified) | > 38 µM (inactive) |
| O=C(O)CSc1cc(NS(=O)(=O)c2ccc(Br)cc2)c2ccccc2c1O | 2.2 µM |
| COC(=O)c1ccc(NC2=C(Cl)C(=O)OC2OC(=O)c2ccccc2)cc1 (stereo unspecified) | > 38 µM (inactive) |
| Cc1[nH]nc2c1C1(CCC3(CC1)OCCO3)C(C#N)=C(N)O2 | > 38 µM (inactive) |
| c1ccc2[nH]c3cc4ncnc4cc3nc2c1 | 37.5 µM |
| O=C(CCl)N(c1ccccc1)c1c[nH]c2ccccc12 | 1.46 µM |
| COc1cc(/C=C2\C(=O)N(c3ccc(NC(C)=O)cc3)N=C2c2ccccc2)ccc1O | > 38 µM (inactive) |
| O=C(c1c[nH]c(C(=O)C(Cl)(Cl)Cl)c1)c1ccc(F)cc1Cl | 30.1 µM |
| O=[N+]([O-])c1cc(S(=O)(=O)C(F)(F)F)ccc1Sc1nc2ccccc2[nH]1 | 16 µM |
| Cc1ccc(/C=C2\SC(N3CCN(C(c4ccccc4)c4ccccc4)CC3)=NC2=O)o1 | 4.48 µM |
| CC(C)c1ccc(S(=O)(=O)/N=C2\C=C(NS(=O)(=O)c3ccccc3)C(=O)c3ccccc32)cc1 | 6.05 µM |
| CCc1[nH]nc2c1C(c1cccnc1)C(C#N)=C(N)O2 (stereo unspecified) | > 38 µM (inactive) |
| O=C1/C(=C/Nc2cccc([N+](=O)[O-])c2)CCc2ccccc21 | > 38 µM (inactive) |
| Cc1nnc(N/N=C/c2cccc(OCc3ccc(Cl)c(Cl)c3)c2)n1N | 23.4 µM |
| COc1ccc(-c2cc(=O)[nH][nH]2)cc1 | 8.39 µM |
| CCc1[nH]nc2c1C1(CCN(C(=O)c3ccccc3)CC1)C(C#N)=C(N)O2 | 25 µM |
| COc1cccc(NC(=S)/C(=C(\[O-])c2ccc(OC(F)F)cc2)[n+]2ccccc2)c1 | 28.1 µM |
| COC(=O)CSc1nc(N)c2c3c(sc2n1)C(c1ccccc1)SC(c1ccccc1)C3 (stereo unspecified) | > 38 µM (inactive) |
| Cc1cc(-c2[nH]nc3c2C(c2cccc(O)c2)C(C#N)=C(N)O3)c(C)s1 (stereo unspecified) | 28.8 µM |

| Compound | AC50 |
| --- | --- |
| O=C(O)CC1S/C(=N/N=C/c2ccc(-c3ccc(Cl)cc3[N+](=O)[O-])o2)NC1=O (stereo unspecified) | 4.67 µM |
| CCCCCCCCCCCCCCCC[N+](C)(C)CC | 10.9 µM |
| O=C(Oc1ccc(N2C(=O)C3C4CCC(C4)C3C2=O)cc1)c1ccco1 (stereo unspecified) | > 38 µM (inactive) |
| O=C1CCN(N=Nc2cccc(Cl)c2)N1 | > 38 µM (inactive) |
| CSc1nc(-c2ccco2)nn1C(=O)c1cccs1 | > 38 µM (inactive) |
| Cn1c(SCC(=O)NCC2CCCO2)ncc(C(=O)Nc2ccccc2)c1=O (stereo unspecified) | > 38 µM (inactive) |
| C#CCOc1ccc(/C=C2/C(=O)N(c3cccc(C(=O)O)c3)N=C2C)cc1OC | 2.79 µM |
| CC(Oc1ccc(F)cc1)C(=O)Oc1ccc(N(C)S(=O)(=O)c2ccccc2)cc1 (stereo unspecified) | > 38 µM (inactive) |
| Oc1c(Cl)cc(Cl)c(Cl)c1Cc1c(O)c(Cl)cc(Cl)c1Cl | 6.85 µM |
| O=C(O)CN1C(=O)/C(=C\c2cccc(OC(=O)c3ccco3)c2)SC1=S | > 38 µM (inactive) |
| CC(=O)OCCN(C)c1cc(SC(C)C)c2nonc2c1[N+](=O)[O-] | > 38 µM (inactive) |
| O=C(Cc1ccccc1)c1c[nH]c(C(=O)C(Cl)(Cl)Cl)c1 | 38.1 µM |
| CCc1ccc(S(=O)(=O)/N=C2\C=C(Nc3ccc(O)cc3)C(=O)c3ccccc32)cc1 | 0.56 µM |
| CCOC(=O)C1=C(C)NC2(O)c3ccccc3C(=O)C12O (stereo unspecified) | 7.53 µM |
| Nn1cnnc1N/N=C/c1ccc(Cl)c([N+](=O)[O-])c1 | > 38 µM (inactive) |
| O=c1c2ccccc2nc2n1CCC2 | 22.9 µM |
| O=C(CSc1nc2ccccc2nc1SCC(=O)N1CCOCC1)N1CCOCC1 | > 38 µM (inactive) |
| CC(C)[C@H](NC(=O)OC(C)(C)C)c1nnc(S(=O)(=O)Cc2c(F)cccc2Cl)o1 | > 38 µM (inactive) |
| CCOC(=O)c1cc2cc3ccccc3cc2[nH]1 | > 38 µM (inactive) |
| COc1ccc2[nH]c3c(Cl)ncnc3c2c1 | > 38 µM (inactive) |
| CC(=O)c1cccc2c(O)c(C3=Nc4ccccc4C3=O)[nH]c12 | 34.6 µM |
| CCCCCCCOC(=O)c1ccc(OC(=O)c2cccnc2)cc1 | 4.17 µM |

| Compound | AC50 |
| --- | --- |
| O=C(Oc1ccc(-n2cnnn2)cc1)c1ccco1 | > 38 µM (inactive) |
| COCc1[nH]nc2c1C(c1ccccc1OC)C(C#N)=C(N)O2 (stereo unspecified) | 36.5 µM |
| COc1cc(/C=N/NC(=S)Nc2cccc(Cl)c2C)ccc1OCC(=O)N1CC(C)OC(C)C1 (stereo unspecified) | > 38 µM (inactive) |
| CC(C)(C)c1[nH]nc2c1C(Cc1ccccc1)C(C#N)=C(N)O2 (stereo unspecified) | > 38 µM (inactive) |
| COc1cc(NC(C)CCCN)c2ncccc2c1Oc1ccccc1 (stereo unspecified) | 15.2 µM |
| Cc1[nH]nc2c1C(c1ccco1)C(C#N)=C(N)O2 (stereo unspecified) | > 38 µM (inactive) |
| CC(C)(C)c1[nH]nc2c1C(c1ccoc1)C(C#N)=C(N)O2 (stereo unspecified) | > 38 µM (inactive) |
| COc1ccc(C2C(O)C(c3c[nH]c4ccccc34)=NN2C(=O)CCl)cc1 (stereo unspecified) | 1.22 µM |
| CNCc1ccccc1Sc1ccc(O)c(O)c1 | > 38 µM (inactive) |
| Cc1cc(C)cc(Cn2ncc(Cl)c(Cl)c2=O)c1 | 1.38 µM |
| COC(CN(C(=O)CCl)C(C(=O)NC1CCCCC1)c1ccc(Cl)cc1)OC (stereo unspecified) | 7.61 µM |
| Cc1sc(NC(=O)CCl)c(C(=O)c2ccccc2)c1C | 5.28 µM |
| Cc1cc(-c2[nH]nc3c2C(c2ccc(Cl)cc2)C(C#N)=C(N)O3)c(C)s1 (stereo unspecified) | 15.2 µM |
| CCCc1[nH]nc2c1C(c1ccc(OCCN3CCOCC3)c(OCC)c1)C(C#N)=C(N)O2 (stereo unspecified) | > 38 µM (inactive) |
| CCN1C(=O)c2c(C)nc3ccccc3c2C1=O | > 38 µM (inactive) |
| Cc1ccc2nc(/C(C#N)=C\c3ccc([N+](=O)[O-])o3)[nH]c2c1 | > 38 µM (inactive) |
| CC1(N2CCOCC2)CC2(O)C(=[N+]1[O-])CCc1nonc12 (stereo unspecified) | 36.5 µM |
| COc1cccc(N2CC(C(=O)Nc3nnc(SCC(=O)c4ccccc4)s3)CC2=O)c1 (stereo unspecified) | > 38 µM (inactive) |
